Like-named read-outs stand apart in the source and are kept apart here.

Data set [1] in a line: in vitro. The following applies: African green monkey.
Data set [2] deals with herpes simplex virus type 1 (HSV-1). As to the kind of experiment: microbe, parasite or virus in culture. Format: cell-based. The following applies: for IC50: Human alphaherpesvirus 1, Vero, 72 h, read-out: IC50 Herpes Simplex Virus Type 1.
Data set [3] can be described thus: in vitro.
A further data set relates to Chikungunya Virus. As to the kind of experiment: microbe, parasite or virus in culture. Type of data set: cell-based. The following applies: Chikungunya virus, read-out: IC50 Chikungunya Virus.
Data set [4] in a line: in vitro. This is another data set of the same source.
A further data set relates to Enterovirus 71. Kind of data set: microbe, parasite or virus in culture. Format: cell-based. As to conditions: Enterovirus A, read-out: IC50 Enterovirus 71.
In another data set the test system is Yellow Fever Virus. Kind of data set: microbe, parasite or virus in culture. Format: cell-based. As to conditions: Yellow fever virus, read-out: IC50 Yellow Fever Virus.
The subject of data set [5] is human adenovirus type 5 (AdV5). Kind of data set: microbe, parasite or virus in culture. Type of data set: cell-based. As to conditions: Human mastadenovirus C, Vero, 72 h, read-out: IC50 Human Adenovirus Type 5.
A short description of data set [6]: in vitro. The following applies: dog.
Data set [7] deals with Influenza virus (Flu A, strain A/Puerto Rico/8/34 (H1N1)). Kind of data set: microbe, parasite or virus in culture. Type of data set: cell-based. As to conditions: for IC50: unidentified influenza virus, H1N1, MDCK, 48 h, read-out: IC50 Influenza Virus.
Data set [8] is described as follows: in vitro. The source holds these as a separate data set.
Where [9] appears, read: CC50 (Herpes Simplex Virus Type 1).

Broadly, the IC50 is the concentration that inhibits the measured activity by half. `Nc1nc2c(ncn2COCCO)c(=O)[nH]1` [Acyclovir, reference compound] gave a CC50 in “in vitro [1]” (setting [9]) of over 1130 µM. In addition, the IC50 in data set [2] turned out to be 28 ± 4 µM.
With `O=c1[nH]c(=O)n(C[C@H]2[C@@H]3CC(O)[C@H]2C[C@@H]3Cl)cc1F` (stereo partly drawn) [Compound 4a, 1-(((1S,2S,4S,7R)-2-Chloro-5-hydroxybicyclo[2.2.1]heptan-7-yl)methyl)-5-fluoropyrimidine-2,4(1H,3H)-dione], the CC50 in the data set “in vitro [3]” was over 100 µM; in “in vitro [4]”, over 100 µM; in “in vitro [6]”, over 1040 µM; in the data set “in vitro [1]” (setting [9]), over 1040 µM; in the data set “in vitro [1]” (CC50 (Human Adenovirus Type 5)), over 1040 µM; in “in vitro [8]”, over 100 µM. The IC50 in the data set on Chikungunya Virus is over 100 µM; in the data set on Enterovirus 71 it was over 100 µM; in the data set with Yellow Fever Virus it was over 100 µM; in [5] it was over 1040 µM; in [7], 173 ± 21 µM; in data set [2], over 1040 µM.
Consider `O=c1ccn(C[C@@H]2[C@@H]3C[C@H](Cl)[C@H]2C[C@H]3O)c(=O)[nH]1` [Compound 4b, 1-(((1S,2S,4S,5R,7R)-2-Chloro-5-hydroxybicyclo[2.2.1]heptan-7-yl)methyl)pyrimidine-2,4(1H,3H)-dione], for which the CC50 was over 100 µM in “in vitro [3]”; over 100 µM in the data set “in vitro [4]”; over 1110 µM in the data set “in vitro [6]”; 1110 µM in the data set “in vitro [1]” (setting [9]); over 1110 µM in the data set “in vitro [1]” (CC50 (Human Adenovirus Type 5)); over 100 µM in the data set “in vitro [8]”. Also, the concentration for half-maximal inhibition (IC50) is over 100 µM in the data set on Chikungunya Virus; over 100 µM in the data set on Enterovirus 71; over 100 µM in the data set on Yellow Fever Virus; over 1110 µM in data set [5]; 369 ± 26 µM in data set [7]; 705 ± 81 µM in data set [2].
As to `Cc1cn(C[C@H]2[C@@H]3CC(O)[C@H]2C[C@@H]3Cl)c(=O)[nH]c1=O` (stereo partly drawn) [Compound 4c, 1-(((1S,2S,4S,7R)-2-Chloro-5-hydroxybicyclo[2.2.1]heptan-7-yl)methyl)-5-methylpyrimidine-2,4(1H,3H)-dione], the CC50 in the data set “in vitro [3]” is over 100 µM; in “in vitro [4]”, over 100 µM; in “in vitro [6]” it was over 1050 µM; in “in vitro [1]” (setting [9]) it was over 1050 µM; in the data set “in vitro [1]” (CC50 (Human Adenovirus Type 5)), over 1050 µM; in the data set “in vitro [8]”, over 100 µM. In addition, the IC50 in the data set on Chikungunya Virus was over 100 µM; in the data set on Enterovirus 71 it was over 100 µM; with Yellow Fever Virus, over 100 µM; in [5] it was over 1050 µM; in data set [7], over 1050 µM; in [2], over 1050 µM.
As for `Nc1ccn(C[C@H]2[C@@H]3CC(O)[C@H]2C[C@@H]3Cl)c(=O)n1` (stereo partly drawn) [Compound 4d, 4-Amino-1-(((1S,2S,4S,7R)-2-chloro-5-hydroxybicyclo[2.2.1]heptan-7-yl)methyl)pyrimidin-2(1H)-one], the CC50 in “in vitro [3]” is over 100 µM; in “in vitro [4]”, over 100 µM; in “in vitro [6]” it was over 1110 µM; in “in vitro [1]” (setting [9]), over 1110 µM; in the data set “in vitro [1]” (CC50 (Human Adenovirus Type 5)) it was over 1110 µM; in the data set “in vitro [8]”, over 100 µM. The IC50 is over 100 µM in the data set with Chikungunya Virus; over 100 µM in the data set on Enterovirus 71; over 100 µM in the data set with Yellow Fever Virus; over 1110 µM in [5]; 102 ± 12 µM in data set [7]; 727 ± 77 µM in [2]. Also, in data set [7], the “activity against influenza virus in words” value is reported as “active against influenza virus”. The “activity against HSV-1 in words” value in data set [2] is on record as “ineffective against HSV-1”.
Turning to `OC1C[C@H]2[C@H](Cn3cnc4c(Cl)ncnc43)[C@@H]1C[C@@H]2Cl` (stereo partly drawn) [Compound 5, (1S,4S,5S,7R)-5-Chloro-7-((6-chloro-9H-purin-9-yl)methyl)bicyclo[2.2.1]heptan-2-ol], the CC50 in “in vitro [3]” is over 100 µM; in the data set “in vitro [4]” it was over 100 µM; in the data set “in vitro [6]”, over 958 µM; in the data set “in vitro [1]” (setting [9]), over 830 µM; in “in vitro [1]” (CC50 (Human Adenovirus Type 5)) it was over 958 µM; in “in vitro [8]”, over 100 µM. For the same molecule, the 50% inhibitory concentration (IC50) is over 100 µM in the data set on Chikungunya Virus; over 100 µM in the data set with Enterovirus 71; over 100 µM with Yellow Fever Virus; over 958 µM in data set [5]; 254 ± 14 µM in data set [7]; 69 ± 9 µM in data set [2]. In [2], the “activity against HSV-1 in words” value is recorded as “active against herpes”.
Take `Nc1ncnc2c1ncn2C[C@H]1[C@@H]2CC(O)[C@H]1C[C@@H]2Cl` (stereo partly drawn) [Compound 6a, (1S,4S,5S,7R)-7-((6-Amino-9H-purin-9-yl)methyl)-5-chlorobicyclo[2.2.1]heptan-2-ol]: the CC50 in the data set “in vitro [3]” is over 100 µM; in “in vitro [4]” it was over 100 µM; in the data set “in vitro [6]”, over 1020 µM; in the data set “in vitro [1]” (setting [9]), 975 ± 64 µM; in “in vitro [1]” (CC50 (Human Adenovirus Type 5)), 977 ± 103 µM; in “in vitro [8]” it was over 100 µM. Also, the concentration for half-maximal inhibition (IC50) was over 100 µM in the data set with Chikungunya Virus; 71 µM in the data set with Enterovirus 71; over 100 µM in the data set with Yellow Fever Virus; over 340 µM in data set [5]; 328 ± 29 µM in data set [7]; 102 ± 11 µM in data set [2].
Regarding `OC1C[C@H]2[C@H](Cn3cnc4c(NC5CC5)ncnc43)[C@@H]1C[C@@H]2Cl` (stereo partly drawn) [Compound 6b, (1S,4S,5S,7R)-5-Chloro-7-((6-(cyclopropylamino)-9H-purin-9-yl)methyl)bicyclo[2.2.1]heptan-2-ol], the CC50 was over 100 µM in the data set “in vitro [3]”; over 100 µM in “in vitro [4]”; 752 ± 44 µM in “in vitro [6]”; over 773 µM in the data set “in vitro [1]” (setting [9]); over 899 µM in “in vitro [1]” (CC50 (Human Adenovirus Type 5)); over 100 µM in the data set “in vitro [8]”. The IC50 in the data set with Chikungunya Virus was over 100 µM; in the data set on Enterovirus 71 it was over 100 µM; with Yellow Fever Virus, over 100 µM; in data set [5], over 899 µM; in data set [7], 419 ± 51 µM; in [2] it was 599 ± 64 µM.
Regarding `OC1C[C@H]2[C@H](Cn3cnc4c(NC5CCCC5)ncnc43)[C@@H]1C[C@@H]2Cl` (stereo partly drawn) [Compound 6c, (1S,4S,5S,7R)-5-Chloro-7-((6-(cyclopentylamino)-9H-purin-9-yl)methyl)bicyclo[2.2.1]heptan-2-ol], the CC50 in “in vitro [3]” was over 100 µM; in the data set “in vitro [4]”, over 100 µM; in “in vitro [6]”, 227 ± 19 µM; in “in vitro [1]” (setting [9]) it was 605 ± 42 µM; in the data set “in vitro [1]” (CC50 (Human Adenovirus Type 5)) it was 824 ± 91 µM; in “in vitro [8]” it was over 100 µM. Besides, the IC50 is over 100 µM in the data set on Chikungunya Virus; 28 ± 16 µM in the data set with Enterovirus 71; over 100 µM in the data set on Yellow Fever Virus; over 276 µM in data set [5]; over 83 µM in data set [7]; 47 ± 6 µM in data set [2]. For the same molecule, the “activity against HSV-1 in words” value in [2] was “active against herpes”.
For the molecule `OC1C[C@H]2[C@H](Cn3cnc4c(NC5CCCCC5)ncnc43)[C@@H]1C[C@@H]2Cl` (stereo partly drawn) [Compound 6d, (1S,4S,5S,7R)-5-Chloro-7-((6-(cyclohexylamino)-9H-purin-9-yl)methyl)bicyclo[2.2.1]heptan-2-ol], the CC50 in the data set “in vitro [3]” was over 100 µM; in the data set “in vitro [4]” it was over 100 µM; in “in vitro [6]”, 42 ± 3 µM; in “in vitro [1]” (setting [9]) it was 521 ± 48 µM; in “in vitro [1]” (CC50 (Human Adenovirus Type 5)), 697 ± 75 µM; in the data set “in vitro [8]”, over 100 µM. The IC50 with Chikungunya Virus was over 100 µM; with Enterovirus 71, 28 ± 13 µM; in the data set with Yellow Fever Virus, over 100 µM; in [5] it was 123 ± 14 µM; in data set [7] it was over 27 µM; in [2] it was 21 ± 4 µM. For the same molecule, in data set [2], the “activity against HSV-1 in words” value is on record as “active against herpes”.
Consider `OC[C@@H](Cc1ccccc1)Nc1ncnc2c1ncn2C[C@H]1[C@@H]2CC(O)[C@H]1C[C@@H]2Cl` (stereo partly drawn) [Compound 6e, (1S,4S,5S,7R)-5-Chloro-7-((6-(((R)-1-hydroxy-3-phenylpropan-2-yl)amino)-9H-purin-9-yl)methyl)bicyclo[2.2.1]heptan-2-ol], for which the CC50 is over 100 µM in “in vitro [3]”; over 100 µM in “in vitro [4]”; 188 ± 22 µM in the data set “in vitro [6]”; over 608 µM in “in vitro [1]” (setting [9]); over 701 µM in “in vitro [1]” (CC50 (Human Adenovirus Type 5)); over 100 µM in “in vitro [8]”. Further, the IC50 in the data set with Chikungunya Virus is over 100 µM; with Enterovirus 71, over 100 µM; in the data set with Yellow Fever Virus it was over 100 µM; in data set [5], over 701 µM; in data set [7], over 26 µM; in data set [2] it was 380 ± 46 µM.
On to `CN1CCN(c2ncnc3c2ncn3C[C@H]2[C@@H]3CC(O)[C@H]2C[C@@H]3Cl)CC1` (stereo partly drawn) [Compound 6f, (1S,4S,5S,7R)-5-Chloro-7-((6-(4-methylpiperazin-1-yl)-9H-purin-9-yl)methyl)bicyclo[2.2.1]heptan-2-ol], for which the CC50 was over 100 µM in “in vitro [3]”; over 100 µM in the data set “in vitro [4]”; over 796 µM in “in vitro [6]”; over 719 µM in the data set “in vitro [1]” (setting [9]); over 796 µM in “in vitro [1]” (CC50 (Human Adenovirus Type 5)); over 100 µM in the data set “in vitro [8]”. The IC50 in the data set with Chikungunya Virus was over 100 µM; in the data set on Enterovirus 71 it was over 100 µM; with Yellow Fever Virus, over 100 µM; in [5] it was 105 ± 11 µM; in data set [7] it was 241 ± 30 µM; in data set [2], 28 ± 4 µM. Also, the “activity against HSV-1 in words” value in data set [2] is on record as “active against herpes”.
As to `CN1CCN(Nc2ncnc3c2ncn3C[C@H]2[C@@H]3CC(O)[C@H]2C[C@@H]3Cl)CC1` (stereo partly drawn) [Compound 6g, (1S,4S,5S,7R)-5-Chloro-7-((6-((4-methylpiperazin-1-yl)amino)-9H-purin-9-yl)methyl)bicyclo[2.2.1]heptan-2-ol], the CC50 in the data set “in vitro [3]” is over 100 µM; in the data set “in vitro [4]”, over 100 µM; in the data set “in vitro [6]” it was over 766 µM; in “in vitro [1]” (setting [9]), over 766 µM; in “in vitro [1]” (CC50 (Human Adenovirus Type 5)), over 766 µM; in the data set “in vitro [8]”, over 100 µM. Besides, the half-maximal inhibitory concentration (IC50) in the data set with Chikungunya Virus was over 100 µM; with Enterovirus 71, over 100 µM; in the data set on Yellow Fever Virus, over 100 µM; in data set [5] it was over 766 µM; in data set [7], over 766 µM; in data set [2] it was 540 ± 32 µM. Besides, the “activity against HSV-1 in words” value in data set [2] is listed as “complete loss of virus inhibition”.
In the data set “in vitro [6]”, `CCOC(=O)C1=C[C@@H](OC(CC)CC)[C@H](NC(C)=O)[C@@H](N)C1` [Oseltamivir, reference compound] showed a CC50 of over 100 µM. In data set [7], the half-maximal inhibitory concentration (IC50) was determined as 0.3 ± 0.1 µM.
